This note sets out measurements from ChEMBL document CHEMBL1201862, “PubChem BioAssay data set” (2004).

Experiment [1] concerns the target Nuclear receptor subfamily 5 group A member 2 (Homo sapiens, UniProt O00482). The format is functional, cell-based.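 Note: HEK293T cells transfected with LRH-1 and a StAR promoter luciferase reporter; potency for inhibitors that lower LRH-1 driven reporter light.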
For the next experiment, the target named is Steroidogenic factor 1 (Homo sapiens, UniProt Q13285). Kind of experiment: Counterscreen for inverse agonists of the liver receptor homolog-1 (LRH-1; NR5A2): Luminescence-based cell-based high throughput dose response assay to identify inverse agonists of the Steroidogenic Factor 1 Nuclear Receptor (SF1; NR5A1). The format is functional.
Steroidogenic factor 1, sequence (Q13285 whole entry): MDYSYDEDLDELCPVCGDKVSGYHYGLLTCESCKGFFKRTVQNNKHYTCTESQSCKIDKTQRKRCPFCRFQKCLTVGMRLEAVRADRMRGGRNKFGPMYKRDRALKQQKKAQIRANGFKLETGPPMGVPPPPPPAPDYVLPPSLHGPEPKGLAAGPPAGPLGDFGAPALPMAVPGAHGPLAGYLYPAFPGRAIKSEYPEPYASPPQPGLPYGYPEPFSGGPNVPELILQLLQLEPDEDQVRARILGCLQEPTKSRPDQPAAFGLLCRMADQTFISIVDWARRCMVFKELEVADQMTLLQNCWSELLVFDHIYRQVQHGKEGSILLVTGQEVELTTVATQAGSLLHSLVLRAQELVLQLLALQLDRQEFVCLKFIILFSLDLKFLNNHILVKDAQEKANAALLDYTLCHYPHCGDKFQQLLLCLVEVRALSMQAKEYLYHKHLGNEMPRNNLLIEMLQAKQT
Experiment [2] can be described thus: StAR promoter reporter inhibition counter-screen, dose response, counter-screen for LRH-1 inverse agonist project, cell-based, luminescence, luciferase reporter (AID 651969). The experiment is classed as functional. In general terms: A counterscreen serves to expose hits that act by an unwanted route or on another target.
Experiment [3] is described as follows: growth suppression of PTEN-null colon cells, dose response, cell-based, HCT116 PTEN knockout (AID 1047).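 Note: HCT116 colon tumor cells with PTEN knocked out; cells exposed to compound for 60 hours before readout; potency for loss of cell viability measured by luminescence.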 The format is functional.
A short description of experiment [4]: growth suppression of beta-catenin-knockout colon cells, dose response, cell-based, HCT116, human colon tumor (AID 1045).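 Note: HCT116 colon tumor cells with beta catenin knocked out; cells exposed to compound for 60 hours.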 The experiment is classed as functional.
Experiment [5] can be described thus: Luminescence Cell-Based Dose Retest to Confirm Inhibitors of Cancer Stem Cells. [Related pubchem assays (depositor defined):AID2717, AID2721]. The format is functional. The settings on record: Homo sapiens.
Experiment [6] concerns the target T1, Probable nicotinate-nucleotide adenylyltransferase (Staphylococcus aureus (strain N315), UniProt P65502). The format is functional, Staphylococcus aureus subsp. aureus N315.
For experiment [7], the target named is T1, Probable nicotinate-nucleotide adenylyltransferase. The format is functional, Staphylococcus aureus subsp. aureus N315. The note with it: read-out: IC50_Mean.
The target in experiment [8] is T2, Histone-lysine N-methyltransferase NSD2 (Homo sapiens, UniProt O96028).
T2 sequence (O96028 whole entry): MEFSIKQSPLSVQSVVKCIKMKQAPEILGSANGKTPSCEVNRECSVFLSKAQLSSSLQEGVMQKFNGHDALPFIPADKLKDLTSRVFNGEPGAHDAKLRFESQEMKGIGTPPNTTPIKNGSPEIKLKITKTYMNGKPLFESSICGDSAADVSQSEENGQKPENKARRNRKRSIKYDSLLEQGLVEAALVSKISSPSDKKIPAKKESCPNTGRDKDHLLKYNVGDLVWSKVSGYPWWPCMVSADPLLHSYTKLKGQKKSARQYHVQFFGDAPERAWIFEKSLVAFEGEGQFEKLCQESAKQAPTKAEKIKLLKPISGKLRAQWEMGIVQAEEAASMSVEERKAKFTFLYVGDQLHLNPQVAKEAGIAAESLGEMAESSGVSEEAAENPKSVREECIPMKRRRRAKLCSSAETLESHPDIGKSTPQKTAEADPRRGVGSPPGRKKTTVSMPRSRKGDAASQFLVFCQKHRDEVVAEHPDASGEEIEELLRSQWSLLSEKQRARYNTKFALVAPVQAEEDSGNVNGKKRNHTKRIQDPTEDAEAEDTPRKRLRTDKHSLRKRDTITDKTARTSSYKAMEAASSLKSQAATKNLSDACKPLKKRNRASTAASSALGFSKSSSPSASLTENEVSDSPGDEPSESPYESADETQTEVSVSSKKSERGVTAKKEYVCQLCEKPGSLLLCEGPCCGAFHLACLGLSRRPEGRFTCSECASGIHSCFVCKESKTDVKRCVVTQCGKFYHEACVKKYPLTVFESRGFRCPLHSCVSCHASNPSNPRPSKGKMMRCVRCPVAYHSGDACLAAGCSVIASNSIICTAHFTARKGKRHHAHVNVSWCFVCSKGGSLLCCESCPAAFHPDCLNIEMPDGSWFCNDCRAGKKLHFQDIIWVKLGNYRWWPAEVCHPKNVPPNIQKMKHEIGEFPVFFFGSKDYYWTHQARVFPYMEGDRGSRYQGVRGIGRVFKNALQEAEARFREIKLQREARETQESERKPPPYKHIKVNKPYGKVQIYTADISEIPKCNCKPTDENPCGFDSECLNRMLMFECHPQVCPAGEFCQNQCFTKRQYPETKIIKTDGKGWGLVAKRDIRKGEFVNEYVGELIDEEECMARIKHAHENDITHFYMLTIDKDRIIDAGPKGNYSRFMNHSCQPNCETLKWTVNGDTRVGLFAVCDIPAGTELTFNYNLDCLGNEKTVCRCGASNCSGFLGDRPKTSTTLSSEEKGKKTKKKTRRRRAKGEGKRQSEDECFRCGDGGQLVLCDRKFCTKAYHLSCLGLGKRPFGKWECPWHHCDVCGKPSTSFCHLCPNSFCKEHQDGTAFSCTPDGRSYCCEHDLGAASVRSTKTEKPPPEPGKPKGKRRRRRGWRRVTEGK
The experiment is classed as biochemical.

A further experiment addresses T3, Protein skinhead-1 (Caenorhabditis elegans, UniProt P34707).
T3 sequence (P34707 whole entry): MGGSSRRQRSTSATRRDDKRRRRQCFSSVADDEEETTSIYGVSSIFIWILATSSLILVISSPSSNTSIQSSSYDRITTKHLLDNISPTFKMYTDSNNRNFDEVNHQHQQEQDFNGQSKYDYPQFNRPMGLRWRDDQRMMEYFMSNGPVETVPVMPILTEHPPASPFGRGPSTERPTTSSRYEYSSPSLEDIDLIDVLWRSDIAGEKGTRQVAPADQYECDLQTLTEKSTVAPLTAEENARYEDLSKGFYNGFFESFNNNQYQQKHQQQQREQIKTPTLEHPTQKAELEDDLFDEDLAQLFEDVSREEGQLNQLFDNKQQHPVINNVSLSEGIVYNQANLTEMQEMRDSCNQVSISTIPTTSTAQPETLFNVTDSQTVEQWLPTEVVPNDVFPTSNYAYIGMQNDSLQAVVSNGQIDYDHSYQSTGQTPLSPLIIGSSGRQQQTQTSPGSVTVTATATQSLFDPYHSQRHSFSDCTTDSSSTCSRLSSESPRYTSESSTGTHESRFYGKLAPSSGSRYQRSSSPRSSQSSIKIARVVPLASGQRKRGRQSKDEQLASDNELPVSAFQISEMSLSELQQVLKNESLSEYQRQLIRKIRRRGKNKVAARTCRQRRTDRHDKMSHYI
The format is functional.

Experiment [9] in a line: A549 cell cytotoxicity, dose response, cytotoxicity control, plate reader, cherry-pick, antagonist series (AID 743412). The format is functional, cell-based.
Experiment [10] is described as follows: HepG2 cell cytotoxicity, dose response, cytotoxicity control, plate reader, cherry-pick, antagonist series (AID 743416). The experiment is classed as functional, cell-based.
Experiment [11] in a line: LGR2 antagonists, dose response, cell-based, HEK293, CRE-luciferase reporter, cherry pick, set 2 (AID 743343).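 Note: transfected cells were stimulated with diluted bursicon conditioned medium after compound addition.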 The experiment is classed as functional.
Experiment [12] can be described thus: MC4R antagonists, dose response, counter-screen for LGR2 antagonist project, cell-based, plate reader, cherry pick (AID 743444).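 Note: transfected HEK 293 cells stimulated with alpha-MSH peptide; potency of inhibitors of the alpha-MSH evoked signal.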 The experiment is classed as functional.
Experiment [13] in a line: HEK293 cell cytotoxicity, dose response, cytotoxicity control, plate reader, cherry-picked samples (AID 743446). The format is functional, cell-based.
Experiment [14] is described as follows: intracellular Trypanosoma cruzi inhibitors in host cells – cell-based, plate reader, cherry-pick samples, set 3, dose response (AID 651818).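 Note: compounds incubated with infected cells for about four days.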 The experiment is classed as functional.
The next experiment has as its target Paired box protein Pax-8 (Homo sapiens, UniProt Q06710). Nature of the experiment: inhibitors of PAX8-driven TPO luciferase reporter, dose response, RMG-I cells, cherry-pick (AID 687027).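 Note: luciferase reporter driven by Pax8 target thyroperoxidase promoter measured by SteadyGlo luminescence.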 The format is functional, cell-based.
The nature of experiment [15]: NIH:OVCAR-3 ovarian cancer cell cytotoxicity, dose response, PAX8 inhibitor project, plate reader, dry powder samples (AID 743044). The format is functional, cell-based.
Experiment [16] is described as follows: cytotoxicity in OVCAR8 ovarian cancer cells, dose response, PAX8 project, cell-based, plate reader, dry powder samples (AID 743197). The format is functional. The note with it: OVCAR-8.
Experiment [17] can be described thus: HEK293T cytotoxicity, dose response, cytotoxicity control for miR-122 modulator project, cell-based, inhibitor set, cherry-pick, set 2 (AID 720697). The format is functional.

The term EC50 denotes the concentration at which the effect is half-maximal. The term AC50 denotes the midpoint of the concentration-response curve, whichever way the signal moves.

Calls of active or inactive are those of the source. Bounds are passed on as bounds.
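Throughout, for IC50 Mean: confirmatory dose-response retesting of NadD inhibitor hits first found in an ultra-high-throughput screen.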

Nuclear receptor subfamily 5 group A member 2, sequence (O00482 whole entry): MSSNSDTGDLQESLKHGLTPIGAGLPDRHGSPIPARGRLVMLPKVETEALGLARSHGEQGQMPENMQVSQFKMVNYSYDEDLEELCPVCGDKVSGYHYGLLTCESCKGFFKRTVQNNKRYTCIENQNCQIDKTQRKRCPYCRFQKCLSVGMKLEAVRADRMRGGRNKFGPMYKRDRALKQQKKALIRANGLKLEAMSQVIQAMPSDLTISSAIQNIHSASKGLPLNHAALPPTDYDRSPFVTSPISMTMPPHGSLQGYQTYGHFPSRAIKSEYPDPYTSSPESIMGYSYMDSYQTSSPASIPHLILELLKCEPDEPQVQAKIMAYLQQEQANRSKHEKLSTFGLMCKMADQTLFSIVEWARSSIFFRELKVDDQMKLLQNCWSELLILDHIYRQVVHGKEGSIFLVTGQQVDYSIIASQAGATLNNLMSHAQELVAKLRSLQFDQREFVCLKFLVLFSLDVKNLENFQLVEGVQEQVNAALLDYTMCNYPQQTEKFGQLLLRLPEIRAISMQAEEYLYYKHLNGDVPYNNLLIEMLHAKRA
T1 sequence (P65502 whole entry): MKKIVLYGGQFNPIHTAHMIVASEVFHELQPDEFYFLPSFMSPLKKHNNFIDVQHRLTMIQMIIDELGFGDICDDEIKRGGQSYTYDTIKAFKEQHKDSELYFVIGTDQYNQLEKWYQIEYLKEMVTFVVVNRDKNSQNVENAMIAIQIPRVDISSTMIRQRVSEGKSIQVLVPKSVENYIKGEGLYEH
Paired box protein Pax-8, sequence (Q06710 whole entry): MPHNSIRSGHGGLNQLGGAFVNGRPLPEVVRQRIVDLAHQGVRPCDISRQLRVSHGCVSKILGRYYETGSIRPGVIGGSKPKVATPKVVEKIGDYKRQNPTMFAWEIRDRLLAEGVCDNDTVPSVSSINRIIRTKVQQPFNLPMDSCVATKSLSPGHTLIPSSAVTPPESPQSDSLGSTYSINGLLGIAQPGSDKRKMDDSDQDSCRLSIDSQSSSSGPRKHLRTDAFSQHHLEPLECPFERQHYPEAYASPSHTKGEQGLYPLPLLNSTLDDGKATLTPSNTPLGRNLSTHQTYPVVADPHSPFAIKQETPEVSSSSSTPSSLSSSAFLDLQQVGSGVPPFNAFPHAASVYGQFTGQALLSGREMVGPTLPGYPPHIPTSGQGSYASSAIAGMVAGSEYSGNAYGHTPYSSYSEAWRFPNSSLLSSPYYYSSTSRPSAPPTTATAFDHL

As to `Cc1ccc(C)c(NC(=O)CSc2nnc(-c3[nH]nc4ccccc34)o2)c1`, the IC50 was 53.5 µM (inactive) in experiment [1], 5.07 µM (active) on Steroidogenic factor 1 and 35.9 µM (inactive) in experiment [2].

With `NS(=O)(=O)c1ccc(NC(=O)COC(=O)c2c3c(nc4ccccc24)/C(=C\c2ccc4c(c2)OCO4)CCC3)cc1`, the half-maximal effective concentration (EC50) in experiment [3] was 17.5 µM (active); in experiment [4], 18.3 µM (active). In experiment [5], the AC50 is 3.72 µM (active). Moreover, the IC50 in [6] is 11.9 µM (active); in [7], 21.1 µM (active).

As for `O=C(Nc1ccccn1)c1ccc2c(=O)n3c(nc2c1)CCCCC3`, the AC50 in experiment [8] is 7.7 µM (active).

As to `CCOc1ccc(CCNC(=O)CN2C(=O)NC3(CCc4ccccc43)C2=O)cc1OCC` (centres undefined), the values for the IC50 (in experiment [1]; at Steroidogenic factor 1; in experiment [2]) were 16.7 µM (inactive), 4.33 µM (active) and 35.9 µM (inactive), respectively.

Take `Cc1ccc(-n2nc3c(c2NC(=O)c2ccc(Br)o2)CSC3)c(C)c1`: the IC50 in experiment [6] was 2.11 µM (active); in experiment [7], 8.03 µM (active).

In the case of `CCOc1ccc(Cc2nnc(SCC(=O)Nc3ccc(C(C)=O)cc3)nc2O)cc1`, the figures for the IC50 (in [1]; at Steroidogenic factor 1; in experiment [2]) were 13.5 µM (inactive), 5.1 µM (active) and 35.9 µM (inactive), respectively.

`CN(C)CC(O)c1ccc(C=Cc2ccc(Cl)cc2)cc1` (centres undefined): the IC50 at Protein skinhead-1 is 58.1 µM (inactive). The AC50 in experiment [9] was 8.82 µM (active); in [10] it was 8.24 µM (active); in experiment [11], 14.6 µM (active); in experiment [12], 12.7 µM (active); in experiment [13], 14.3 µM (active).

As to `COc1ccc(CCNC(=O)CN2C(=O)NC3(CCCCC3)C2=O)cc1`, the IC50 in [1] is 16.5 µM (inactive); at Steroidogenic factor 1, 1.74 µM (active); in experiment [2], 35.9 µM (inactive).

As for `Cc1cccc(C)c1-n1nnnc1C(CCc1ccccc1)N1CCC(n2c(O)nc3ccccc32)CC1` (centres undefined), the AC50 was 16.6 µM (active) in [9]; 2.71 µM (active) in experiment [10]; 9.92 µM (active) in experiment [11]; 8.26 µM (active) in experiment [12]; 6.12 µM (active) in experiment [13].

Take `C[C@H]1CN([C@@H](C)CO)C(=O)Cc2cc(NC(=O)NC3CCCCC3)ccc2O[C@H]1CN(C)Cc1ccc(-c2ccccc2)cc1`: the AC50 is 2.67 µM (active) in experiment [14], 5.8 µM (active) at Paired box protein Pax-8, 54.3 µM (active) in experiment [15] and > 70 µM (inactive) in experiment [16].

Consider `C[C@H](CO)N1C[C@H](C)[C@@H](CN(C)Cc2ccc(Cl)c(Cl)c2)Oc2ccc(NC(=O)Nc3ccc(F)cc3)cc2CC1=O`, for which the concentration at half-maximal activity (AC50) on Paired box protein Pax-8 is 13.2 µM (active); in [16], 54.4 µM (active).

For `C[C@@H]1CN([C@H](C)CO)S(=O)(=O)c2ccc(-c3ccc(C(=O)N(C)C)cc3)cc2O[C@@H]1CN(C)C(=O)C1CCC1`, the concentration at half-maximal activity (AC50) in experiment [17] is 0.493 µM (active).

Take `CN(C[C@H]1N[C@@H](CO)[C@@H]1c1ccc(C2=CCCC2)cc1)C(=O)c1ccccn1`: the AC50 in experiment [17] was 2.46 µM (active).
